Broadly, the Ki is a measure of affinity in units of concentration, obtained from inhibition or displacement. What is called Emax is the greatest response seen or fitted, relative to the assay's reference. A word on the EC50: it is the concentration needed to bring the measured effect to its halfway point.

The target in test [1] is T1, μ-opioid receptor (Homo sapiens, UniProt P35372). Nature of the test: μ-opioid receptor radioligand dose-displacement binding assay. The procedure:
Radioligand dose-displacement binding assays for μ-opioid receptors used 0.3 nM [^3H]-diprenorphine (Perkin Elmer, Shelton, Conn.), with […] membrane protein/well in a final volume of […] binding buffer (10 mM MgCl2, 1 mM EDTA, 5% DMSO, 50 mM HEPES, pH 7.4). Reactions were carried out in the absence or presence of increasing concentrations of unlabeled naloxone. All reactions were conducted in 96-deep well polypropylene plates for 2 hr at room temperature. […] The data were analyzed using the one-site competition curve fitting functions in GraphPad PRISM™ v. 3.0 or higher (San Diego, Calif.), or an in-house function for one-site competition curve-fitting.
Target sequence in this assay (P35372 whole entry): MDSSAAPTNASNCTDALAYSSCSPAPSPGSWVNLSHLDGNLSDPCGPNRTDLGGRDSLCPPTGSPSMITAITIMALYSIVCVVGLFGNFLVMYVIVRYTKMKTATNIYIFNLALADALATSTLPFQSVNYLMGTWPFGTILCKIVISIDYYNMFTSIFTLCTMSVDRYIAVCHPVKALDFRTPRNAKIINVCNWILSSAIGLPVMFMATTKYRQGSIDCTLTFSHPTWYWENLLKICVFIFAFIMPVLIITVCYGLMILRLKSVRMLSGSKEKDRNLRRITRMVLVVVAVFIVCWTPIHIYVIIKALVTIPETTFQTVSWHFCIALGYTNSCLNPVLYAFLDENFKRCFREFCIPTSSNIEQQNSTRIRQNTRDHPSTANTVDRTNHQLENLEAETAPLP

Test [2] deals with T2, κ opioid receptor (Homo sapiens, UniProt P41145). Nature of the test: κ-opioid receptor [35S]GTPγS functional assay. Format: biochemical. Details: expressed in transfected cells. Conditions: for Emax: relative to the effect elicited by U69,593. The protocol: (§1) Functional [^35S]GTPγS binding assays were conducted as follows. κ opioid receptor membrane solution was prepared by sequentially adding final concentrations of 0.026 μg/μl κ membrane protein (in-house), 10 μg/mL saponin, 3 μM GDP and 0.20 nM [^35S]GTPγS to binding buffer (100 mM NaCl, 10 mM MgCl2, 20 mM HEPES, pH 7.4) on ice. The prepared membrane solution (190 μl/well) was transferred to 96-shallow well polypropylene plates containing 10 μl of 20× concentrated stock solutions of agonist prepared in DMSO. Plates were incubated for 30 min at a temperature of about 25° C. with shaking.
κ GTP EC50 is the concentration of a compound providing 50% of the maximal response for the compound at a κ receptor.
κ GTP Emax (%) is the maximal effect elicited by a compound relative to the effect elicited by U69,593.
In general terms: Binding of GTPγS marks nucleotide exchange on a G protein.

Test [3] addresses T1, μ-opioid receptor. Nature of the test: μ-opioid receptor [35S]GTPγS functional assay. It counts as biochemical. Also on record: purchased Perkin Elmer, Shelton, Conn. Conditions: for Emax: relative to the effect elicited by DAMGO. The protocol:
[^35S]GTPγS functional assays were conducted using freshly thawed μ-receptor membranes (Perkin Elmer, Shelton, Conn.). Assay reactions were prepared by sequentially adding the following reagents to binding buffer (100 mM NaCl, 10 mM MgCl2, 20 mM HEPES, pH 7.4) on ice (final concentrations indicated): membrane protein (0.026 mg/mL), saponin ([…]), GDP ([…]) and [^35S]GTPγS (0.20 nM; Perkin Elmer, Shelton, Conn.). The prepared membrane solution (190 μl/well) was transferred to 96-shallow well polypropylene plates containing 10 μI of 20× concentrated stock solutions of the agonist [D-Ala^e, N-methyl-Phe^4 Gly-ol^5]-enkephalin (DAMGO) prepared in dimethyl sulfoxide (DMSO). Plates were incubated for 30 min at about 25° C. with shaking. […] Data were analyzed using the sigmoidal dose-response curve fitting functions in GraphPad PRISM v. 3.0, or an in-house function for non-linear, sigmoidal dose-response curve-fitting.
μ GTP EC50 is the concentration of a compound providing 50% of the maximal response for the compound at a μ-opioid receptor.
μ GTP Emax (%) is the maximal effect elicited by a compound relative to the effect elicited by DAMGO, a standard μ agonist. Generally, the μ GTP Emax (%) value measures the efficacy of a compound to treat or prevent pain or other Conditions.
Target sequence in this assay (P35372 whole entry, species assumed): as the sequence (P35372 whole entry) above

The target of test [4] is T3, δ opioid receptor (Homo sapiens, UniProt P41143). Nature of the test: δ-opioid receptor radioligand dose-displacement binding assay.
Procedure: δ-opioid Receptor Binding Assay Procedures were conducted as follows. Radioligand dose-displacement assays used 0.3 nM [^3H]-Naltrindole (Perkin Elmer, Shelton, Conn.; 33.0 Ci/mmole) with 5 μg membrane protein (Perkin Elmer, Shelton, Conn.) in a final volume of 500 μl binding buffer (5 mM MgCl2, 5% DMSO, 50 mM Trizma base, pH 7.4). Non-specific binding was determined in the presence of 25 μM unlabeled naloxone. All reactions were performed in 96-deep well polypropylene plates for 1 hr at a temperature of about 25° C. Binding reactions were terminated by rapid filtration onto 96-well Unifilter GF/C filter plates (Perkin Elmer, Shelton, Conn.) presoaked in 0.5% polyethylenimine (Sigma). Harvesting was performed using a 96-well tissue harvester (Perkin Elmer, Shelton, Conn.) followed by five filtration washes with 500 μl ice-cold binding buffer. Filter plates were subsequently dried at 50° C. for 1-2 hours. Fifty μl/well scintillation cocktail (Perkin Elmer, Shelton, Conn.) was added and plates were counted in a Packard Top-Count for 1 min/well.
For test [5], the target named is T2, κ opioid receptor. Briefly: κ-opioid receptor radioligand dose displacement binding assay. Details: expressed in transfected cells; host or cells: HEK-293. The procedure: Membranes from recombinant HEK-293 cells expressing the human κ opioid receptor (κ) (cloned in house) were prepared by lysing cells in ice cold hypotonic buffer (2.5 mM MgCl2, 50 mM HEPES, pH 7.4) (10 mL/10 cm dish) followed by homogenization with a tissue grinder/Teflon pestle. Membranes were collected by centrifugation at 30,000×g for 15 min at 4° C. and pellets were resuspended in hypotonic buffer to a final concentration of 1-3 mg/mL. Protein concentrations were determined using the BioRad protein assay reagent with bovine serum albumen as standard. Aliquots of κ receptor membranes were stored at […]

Test [6] concerns the target T3, δ opioid receptor. Nature of the test: δ-opioid receptor [35S]GTPγS functional assay. Format: biochemical. Also on record: purchased Perkin Elmer, Shelton, Conn. Conditions: for Emax: relative to the effect elicited by met-enkephalin; for EC50: δ membrane protein. The procedure:
as §1, with “δ” for “κ”, “(Perkin Elmer, Shelton, Conn.),” for “(in-house),”, “[…]” for “10 μl”
δ GTP EC50 is the concentration of a compound providing 50% of the maximal response for the compound at a δ receptor.
δ GTP Emax (%) is the maximal effect elicited by a compound relative to the effect elicited by met-enkephalin. […] In another embodiment, the Compounds of the Invention will have a δ GTP Emax (%) of about 100% or greater.

For test [7], the target named is T4, human opioid receptor-like receptor (ORL-1) (Homo sapiens, UniProt P41146).
T4 construct: host or cells: HEK-293
Nature of the test: ORL-1 receptor radioligand binding assay. The protocol:
Membranes from recombinant HEK-293 cells expressing the human opioid receptor-like receptor (ORL-1) (Perkin Elmer, Shelton, Conn.) were prepared by lysing cells in ice-cold hypotonic buffer (2.5 mM MgCl2, 50 mM HEPES, pH 7.4) (10 ml/10 cm dish) followed by homogenization with a tissue grinder/Teflon pestle. Membranes were collected by centrifugation at 30,000×g for 15 min at 4° C. and pellets resuspended in hypotonic buffer to a final concentration of 1-3 mg/ml. Protein concentrations were determined using the BioRad protein assay reagent with bovine serum albumen as standard. Aliquots of the ORL-1 receptor membranes were stored at −80° C.
The data from screening and dose-displacement experiments were analyzed using Microsoft Excel and the curve fitting functions in GraphPad PRISM™, v. 3.0 or higher, respectively, or an in-house function for one-site competition curve-fitting.

Setting [8] is: [3H]-diprenorphine displacement, read-out: Ki (nM) Opioid Receptor μ.
Setting [9] is: κ membrane protein (in-house), read-out: GTPγS κ EC50.
Where [10] appears, read: μ-receptor membranes, read-out: GTPγS μ EC50.
Setting [11] is: [3H]-U69,593 displacement, HEK-293 membranes, read-out: Ki (nM) Opioid Receptor κ.
Setting [12] is: [3H]-nociceptin displacement, HEK-293 membranes, read-out: Ki (nM) ORL-1.

Where two headings read alike, the source gives them in different places.

T3 sequence (P41143 whole entry): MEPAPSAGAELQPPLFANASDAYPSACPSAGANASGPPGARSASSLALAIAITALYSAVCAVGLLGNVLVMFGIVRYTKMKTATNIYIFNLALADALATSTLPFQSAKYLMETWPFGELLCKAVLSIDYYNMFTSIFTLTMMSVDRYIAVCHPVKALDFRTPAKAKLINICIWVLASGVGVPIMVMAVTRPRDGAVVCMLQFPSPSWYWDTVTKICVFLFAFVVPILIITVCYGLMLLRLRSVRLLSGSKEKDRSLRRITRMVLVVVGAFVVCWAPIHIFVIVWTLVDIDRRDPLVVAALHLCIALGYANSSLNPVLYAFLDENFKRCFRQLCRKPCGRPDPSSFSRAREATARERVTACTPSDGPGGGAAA
T2 sequence (P41145 whole entry): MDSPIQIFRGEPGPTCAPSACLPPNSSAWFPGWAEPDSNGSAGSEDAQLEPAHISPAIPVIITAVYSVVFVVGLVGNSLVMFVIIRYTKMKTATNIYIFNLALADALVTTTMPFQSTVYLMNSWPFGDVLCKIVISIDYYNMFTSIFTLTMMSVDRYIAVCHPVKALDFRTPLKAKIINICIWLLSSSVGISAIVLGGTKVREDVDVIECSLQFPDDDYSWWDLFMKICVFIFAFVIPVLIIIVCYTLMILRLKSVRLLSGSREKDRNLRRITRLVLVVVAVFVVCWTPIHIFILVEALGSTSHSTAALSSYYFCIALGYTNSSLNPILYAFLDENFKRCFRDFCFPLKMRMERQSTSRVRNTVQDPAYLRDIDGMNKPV
T4 sequence (P41146 whole entry): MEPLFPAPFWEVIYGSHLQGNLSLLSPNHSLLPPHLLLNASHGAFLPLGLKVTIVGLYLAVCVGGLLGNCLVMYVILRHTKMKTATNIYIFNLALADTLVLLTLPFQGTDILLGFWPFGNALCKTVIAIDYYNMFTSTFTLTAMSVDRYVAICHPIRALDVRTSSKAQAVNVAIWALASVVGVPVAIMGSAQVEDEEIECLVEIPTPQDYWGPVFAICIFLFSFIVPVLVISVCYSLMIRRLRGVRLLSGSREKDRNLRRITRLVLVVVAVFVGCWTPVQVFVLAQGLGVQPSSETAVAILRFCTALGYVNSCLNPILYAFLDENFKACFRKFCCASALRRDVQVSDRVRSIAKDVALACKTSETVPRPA

On to `COc1ccc2c(c1)[C@@]1(CCCc3ccco3)CCN(CC3CC3)C(C2)C1C` (stereo in doubt) [Compound 15, (2R,6S,11S)-3-(cyclopropylmethyl)-6-(3-(furan-2-yl)propyl)-8-methoxy-11-methyl-1,2,3,4,5,6-hexahydro-2,6-methanobenzo[d]azocine], for which the Ki came out at 389 ± 90.2 nM at μ-opioid receptor [1] (setting [8]), 736 ± 196 nM on δ opioid receptor [4] and 2.11 ± 0.22 nM on κ opioid receptor [5] (setting [11]). The results for the Emax on κ opioid receptor [2], at μ-opioid receptor [3] and on δ opioid receptor [6] were 82.3%, 34.6% and 67%, respectively. The EC50 at κ opioid receptor [2] (setting [9]) stood at 104 nM; on μ-opioid receptor [3] (setting [10]) it was 303 nM; at δ opioid receptor [6], 143 nM.

Take `COc1ccc2c(c1)[C@@]1(CCC[C@H](O)CO)CCN(CC3CC3)C(C2)[C@@H]1C` [Compound 11, (2S)-5-((6S,11R)-3-(cyclopropylmethyl)-8-methoxy-11-methyl-1,2,3,4,5,6-hexahydro-2,6-methanobenzo[d]azocin-6-yl)pentane-1,2-diol]: the Ki on μ-opioid receptor [1] was found to be 235 ± 17.3 nM; on δ opioid receptor [4] it was 4980 ± 456 nM; on κ opioid receptor [5], 3.23 ± 0.5 nM; in test [7], 13100 ± 1060 nM. For the same molecule, the EC50 on κ opioid receptor [2] is 210 nM; on μ-opioid receptor [3] it was above 20000 nM. For the same molecule, on κ opioid receptor [2], the Emax stood at 81%.

As for `COc1ccc2c(c1)[C@@]1(CCCCO)CCN(CC3CC3)C(C2)[C@@H]1C` [Compound 13, 4-((6S,11R)-3-(cyclopropylmethyl)-8-methoxy-11-methyl-1,2,3,4,5,6-hexahydro-2,6-methanobenzo[d]azocin-6-yl)butan-1-ol], the Ki on μ-opioid receptor [1] was determined as 3420 ± 763 nM; on δ opioid receptor [4], 16200 ± 3050 nM; at κ opioid receptor [5] it was 7.15 ± 0.86 nM. The EC50 on κ opioid receptor [2] was 296 nM. Moreover, at κ opioid receptor [2], the Emax was 71.3%.

In the case of `C[C@H]1[C@H]2Cc3ccc(O)cc3[C@]1(CCOc1cncc(C(=O)O)c1)CCN2CC1CC1` [Compound 16, 5-(2-((2R,6S,11R)-3-(cyclopropylmethyl)-8-hydroxy-11-methyl-1,2,3,4,5,6-hexahydro-2,6-methanobenzo[d]azocin-6-yl)ethoxy)nicotinic acid], the values for the Ki at μ-opioid receptor [1] (setting [8]), on δ opioid receptor [4] and at κ opioid receptor [5] (setting [11]) were 6.85 ± 1.48 nM, 62.5 ± 11 nM and 12.6 ± 2.11 nM, respectively. Also, the Emax on κ opioid receptor [2] is 60.7%; at μ-opioid receptor [3], 26%; at δ opioid receptor [6] it was 37.8%. Further, the EC50 was 67.9 nM at κ opioid receptor [2] (setting [9]), 8.95 nM at μ-opioid receptor [3] (setting [10]) and 2.48 nM on δ opioid receptor [6].

Regarding `CC(C)CN1CC[C@@]2(CCCC(N)=O)c3cc(O)ccc3C[C@@H]1[C@@H]2C` [Compound 18, 4-((2R,6R,11R)-8-hydroxy-3-isobutyl-11-methyl-1,2,3,4,5,6-hexahydro-2,6-methanobenzo[d]azocin-6-yl)butanamide], the Ki at μ-opioid receptor [1] (setting [8]) was 19.8 ± 0.68 nM; at δ opioid receptor [4] it was 155 ± 44.7 nM; at κ opioid receptor [5] (setting [11]), 0.51 ± 0.05 nM. Also, the Emax is 43% on κ opioid receptor [2], 25.3% on μ-opioid receptor [3] and 74.3% on δ opioid receptor [6]. The EC50 came out at 7.14 nM at κ opioid receptor [2] (setting [9]), 9.12 nM on μ-opioid receptor [3] (setting [10]) and 81 nM on δ opioid receptor [6].

For `COC(=O)[C@H](C)NC(=O)CCC[C@]12CCN(CC3CC3)[C@H](Cc3ccc(O)cc31)[C@@H]2C` [Compound 21, (S)-methyl 2-(4-((2R,6R,11R)-3-(cyclopropylmethyl)-8-hydroxy-11-methyl-1,2,3,4,5,6-hexahydro-2,6-methanobenzo[d]azocin-6-yl)butanamido)propanoate], the Ki was 5.05 ± 1.34 nM at μ-opioid receptor [1] (setting [8]), 8.81 ± 0.71 nM on δ opioid receptor [4], 0.13 ± 0.02 nM at κ opioid receptor [5] (setting [11]) and 2430 ± 718 nM in test [7] (setting [12]). The Emax was determined as 67.5% at κ opioid receptor [2] and 36.7% at μ-opioid receptor [3]. Besides, the EC50 at κ opioid receptor [2] (setting [9]) came out at 9.72 nM; on μ-opioid receptor [3] (setting [10]), 5.45 nM.

Turning to `C[C@H](NC(=O)CCC[C@]12CCN(CC3CC3)[C@H](Cc3ccc(O)cc31)[C@@H]2C)C(N)=O` [Compound 22, N—((S)-1-amino-1-oxopropan-2-yl)-4-((2R,6R,11R)-3-(cyclopropylmethyl)-8-hydroxy-11-methyl-1,2,3,4,5,6-hexahydro-2,6-methanobenzo[d]azocin-6-yl)butanamide], the Ki on μ-opioid receptor [1] (setting [8]) is 6.33 ± 1.54 nM; at κ opioid receptor [5] (setting [11]), 0.41 ± 0.08 nM. Besides, the Emax at κ opioid receptor [2] stood at 53.3%; at μ-opioid receptor [3] it was 22.3%. Also, the results for the EC50 at κ opioid receptor [2] (setting [9]) and at μ-opioid receptor [3] (setting [10]) were 13.2 nM and 0.7 nM, respectively.

In the case of `COC(=O)CCC[C@]12CCN(CC3CC3)[C@H](Cc3ccc(O)cc31)[C@@H]2C` [Compound 23, methyl 4-((2R,6R,11R)-3-(cyclopropylmethyl)-8-hydroxy-11-methyl-1,2,3,4,5,6-hexahydro-2,6-methanobenzo[d]azocin-6-yl)butanoate], the Ki came to 1.16 ± 0.36 nM at μ-opioid receptor [1] (setting [8]), 32.6 ± 2.97 nM at δ opioid receptor [4], 0.07 ± 0.01 nM on κ opioid receptor [5] (setting [11]) and 2240 ± 285 nM in test [7] (setting [12]). Also, the Emax at κ opioid receptor [2] is 57%; on μ-opioid receptor [3], 18%. In addition, the EC50 at κ opioid receptor [2] (setting [9]) turned out to be 5.19 nM; on μ-opioid receptor [3] (setting [10]) it was 2.33 nM.

Regarding `COC(=O)c1cccc(C(=O)NCC[C@]23CCN(CC4CC4)[C@H](Cc4ccc(OC)cc42)[C@@H]3C)c1` [Compound 26, methyl 3-((2-((2R,6R,11R)-3-(cyclopropylmethyl)-8-methoxy-11-methyl-1,2,3,4,5,6-hexahydro-2,6-methanobenzo[d]azocin-6-yl)ethyl)carbamoyl)benzoate], the Ki was found to be 158 ± 44.3 nM at μ-opioid receptor [1] (setting [8]) and 0.51 ± 0.07 nM on κ opioid receptor [5] (setting [11]). The Emax on κ opioid receptor [2] stood at 105%; on μ-opioid receptor [3] it was 95%. Also, the results for the EC50 on κ opioid receptor [2] (setting [9]) and on μ-opioid receptor [3] (setting [10]) were 15.3 nM and 46.1 nM, respectively.

(Values after patent US20180127374A1, “BE[…] AS OPIOID RECEPTORS MODULATORS” (Purdue Pharma L.P., priority 2012, published 2018).)
